Values joined by “and” are separate entries in the source; they are usually repeats but may differ in a detail not shown here. Equal values may be shown once.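 Dose response: 5 concentrations. Exposure: 48 h. Format: 96-well plates. Endpoint: linear interpolation; highest concentration if not reached. The concentration for 50% growth inhibition is given as GI50. TGI denotes the concentration required for complete inhibition of growth.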

One assay relates to PC-3 prostate. The assay is described as follows: growth of human tumour cells (NCI), 48 h.
For `CCCCC(=O)OCC(=O)[C@]1(O)Cc2c(O)c3c(c(O)c2[C@@H](OC2CC(NC(=O)C(F)(F)F)C(O)C(C)O2)C1)C(=O)c1c(OC)cccc1C3=O` (stereo partly drawn), the TGI was found to be 16.9 µM.
Same read-out and setting: to `CCN(CCO)CC1CCCC2CCCCC21` (stereo not drawn) belongs above 100 µM.
Turning to `NC(Cc1c[nH]c2c(O)cccc12)C(=O)O` (stereo not drawn), the GI50 is above 100 µM and the TGI is above 100 µM.
In the case of `CCCCOC(=O)C1OC(O[C@H]2CCC3(C)C(CCC4(C)C3CC=C3C5CC(C)(C)CCC5(C(=O)O)CC[C@]34C)C2(C)C)C(OC2OC(CO)C(O)C(O)C2O)C(OC2OC(CO)C(O)C(O)C2O)C1O` (stereo partly drawn), the GI50 was 34.7 µM and the TGI was above 100 µM.
In the same order, the values of `Cn1cc(C2=C(c3cn(C)c4ncccc34)C(=O)NC2=O)c2ccccc21` are 8.27 µM and above 25 µM.
In the case of `NNC(=O)Nc1cccnc1`, the TGI was above 100 µM.
Regarding `C#Cc1ccc(-n2c(/C=C/c3ccc(C(F)(F)F)cc3)nc3ncccc3c2=O)cc1`, the GI50 was 1.96 µM and the TGI is 6.31 µM.
The matching figures for `CCCCCN(CCCCC)CCCNc1c2c(nc3ccc(Cl)cc13)CCCC2`: 2.46 µM and 8.9 µM.

The subject of another assay is UACC-257 melanoma. The experiment in a line: growth of human tumour cells (NCI), 48 h.
For the compound `CCOC(=O)[C@]1(OC(C)=O)C[C@H](OC(C)=O)[C@@H](C(F)COP(=O)(OCc2ccccc2)OCc2ccccc2)O1` (stereo partly drawn), the TGI is above 100 µM.
Consider `CC[C@@]1(O)C[C@H](OC2CC(N(C)C)C(O)C(C)O2)c2c(O)c3c(c(O)c2[C@H]1OC1CC(N(C)C)C(O)C(C)O1)C(=O)c1cccc(O)c1C3=O` (stereo partly drawn), for which the GI50 is below 0.01 µM.
For the compound `O=C(Nc1ccccc1)NS(=O)(=O)c1ccc(-n2nc3c(c2-c2cccs2)Cc2ccccc2-3)cc1`, the GI50 is 17.7 µM and the TGI is 67.7 µM.
In the same order, the values of `CCCCCN(CCCCC)CC(O)c1cc(C)c2ccc3cc(C(C)C)ccc3c2c1` (stereo not drawn) are 1.99 µM and 3.97 µM.
In the same order, the values of `CC1=C(C(=O)Nc2ccc(Cl)c(Cl)c2)C(c2cccc(Oc3ccccc3)c2)NC(=S)N1` (stereo not drawn) are 9.73 µM and 22 µM.
Consider `C=C(CN1CCN(c2ccc(Cl)cc2F)CC1)c1ccc(C(=O)Nc2ccccc2N)cc1`, for which the GI50 was 1.59 µM and the TGI was found to be 48.6 µM.
`CCCCC(=O)OCC(=O)[C@]1(O)Cc2c(O)c3c(c(O)c2[C@@H](OC2CC(NC(=O)C(F)(F)F)C(O)C(C)O2)C1)C(=O)c1c(OC)cccc1C3=O` (stereo partly drawn) registered a TGI of 8.08 µM.
Same read-out and setting: the same measure for `CCN(CCO)CC1CCCC2CCCCC21` (stereo not drawn): above 100 µM.
As for `NC(Cc1c[nH]c2c(O)cccc12)C(=O)O` (stereo not drawn), the GI50 was above 100 µM and the TGI was above 100 µM.
Consider `CCCCOC(=O)C1OC(O[C@H]2CCC3(C)C(CCC4(C)C3CC=C3C5CC(C)(C)CCC5(C(=O)O)CC[C@]34C)C2(C)C)C(OC2OC(CO)C(O)C(O)C2O)C(OC2OC(CO)C(O)C(O)C2O)C1O` (stereo partly drawn), for which the GI50 was 26.2 µM and the TGI came out at 62.2 µM.
In the same order, the values of `Cn1cc(C2=C(c3cn(C)c4ncccc34)C(=O)NC2=O)c2ccccc21` are 12.8 µM and above 25 µM.
In turn, `NNC(=O)Nc1cccnc1` gave a TGI above 100 µM.
As to `C#Cc1ccc(-n2c(/C=C/c3ccc(C(F)(F)F)cc3)nc3ncccc3c2=O)cc1`, the GI50 was 1.56 µM and the TGI came to 2.95 µM.
The matching figures for `CCCCCN(CCCCC)CCCNc1c2c(nc3ccc(Cl)cc13)CCCC2`: 2.19 µM and 4.52 µM.
Take `C=C1C(=O)C23CC1CCC2C12CO[C@@H]4OCC(C)(CC[C@@H]1OC3=O)C42` (stereo partly drawn): the TGI is 10.2 µM.
For the compound `CN/N=C(/Cc1occc(=O)c1O)C(=O)Nc1ccccc1C`, the TGI is above 100 µM.

The test system of another assay is UO-31 renal. The assay is described as follows: growth of human tumour cells (NCI), 48 h.
Regarding `CCOC(=O)[C@]1(OC(C)=O)C[C@H](OC(C)=O)[C@@H](C(F)COP(=O)(OCc2ccccc2)OCc2ccccc2)O1` (stereo partly drawn), the GI50 is 21.6 µM and > 100 µM; the TGI is 43.5 µM and > 100 µM.
For `CC[C@@]1(O)C[C@H](OC2CC(N(C)C)C(O)C(C)O2)c2c(O)c3c(c(O)c2[C@H]1OC1CC(N(C)C)C(O)C(C)O1)C(=O)c1cccc(O)c1C3=O` (stereo partly drawn), the GI50 was below 0.01 µM.
`CC1(C)CCc2c(c3c(c4c(=O)c(O)c(-c5ccc(O)cc5)oc24)OC(C)(C)CC3)O1`: the GI50 is above 100 µM and the TGI was above 100 µM.
Turning to `O=C(Nc1ccccc1)NS(=O)(=O)c1ccc(-n2nc3c(c2-c2cccs2)Cc2ccccc2-3)cc1`, the GI50 is 32.3 µM and the TGI is above 100 µM.
In the same order, the values of `CCCCCN(CCCCC)CC(O)c1cc(C)c2ccc3cc(C(C)C)ccc3c2c1` (stereo not drawn) are 1.48 µM and 2.99 µM.
In the same order, the values of `CC1=C(C(=O)Nc2ccc(Cl)c(Cl)c2)C(c2cccc(Oc3ccccc3)c2)NC(=S)N1` (stereo not drawn) are 7.63 µM and 17.6 µM.
Regarding `CSc1nc2c(c(=O)[nH]1)N=C1c3ccccc3C(=O)C1C(c1ccccc1)N2` (stereo not drawn), the GI50 is 5.23 µM and the TGI was above 100 µM.
In the same order, the values of `C=C(CN1CCN(c2ccc(Cl)cc2F)CC1)c1ccc(C(=O)Nc2ccccc2N)cc1` are 1.1 µM and above 25.1 µM.
`CCCCC(=O)OCC(=O)[C@]1(O)Cc2c(O)c3c(c(O)c2[C@@H](OC2CC(NC(=O)C(F)(F)F)C(O)C(C)O2)C1)C(=O)c1c(OC)cccc1C3=O` (stereo partly drawn): the TGI is 3.45 µM.
In turn, `CCN(CCO)CC1CCCC2CCCCC21` (stereo not drawn) had a TGI above 100 µM.
Take `NC(Cc1c[nH]c2c(O)cccc12)C(=O)O` (stereo not drawn): the GI50 is above 100 µM and the TGI is above 100 µM.
In the case of `CCCCOC(=O)C1OC(O[C@H]2CCC3(C)C(CCC4(C)C3CC=C3C5CC(C)(C)CCC5(C(=O)O)CC[C@]34C)C2(C)C)C(OC2OC(CO)C(O)C(O)C2O)C(OC2OC(CO)C(O)C(O)C2O)C1O` (stereo partly drawn), the GI50 is 49.2 µM and the TGI was above 100 µM.
Turning to `Cn1cc(C2=C(c3cn(C)c4ncccc34)C(=O)NC2=O)c2ccccc21`, the GI50 was 5.68 µM and the TGI was above 19.8 µM.
Take `NNC(=O)Nc1cccnc1`: the TGI is above 100 µM.
For the compound `C#Cc1ccc(-n2c(/C=C/c3ccc(C(F)(F)F)cc3)nc3ncccc3c2=O)cc1`, the GI50 was 1.43 µM and the TGI was found to be 3.67 µM.
In the same order, the values of `CCCCCN(CCCCC)CCCNc1c2c(nc3ccc(Cl)cc13)CCCC2` are 1.93 µM and 10.2 µM.
The compound `C=C1C(=O)C23CC1CCC2C12CO[C@@H]4OCC(C)(CC[C@@H]1OC3=O)C42` (stereo partly drawn) came in with a TGI of 23.6 µM.
On the same count and under the same terms, the same measure for `CN/N=C(/Cc1occc(=O)c1O)C(=O)Nc1ccccc1C`: above 100 µM.
